Source: ChEMBL document CHEMBL3585283, “Synthesis and evaluation of a series of quinolinyl trans-cyanostilbene analogs as anticancer agents” (2014)
Active and inactive are the calls of the source. The rule behind the calls is not given here.

What was measured:
SK-MEL-2 = test: Antitumor activity against human SK-MEL-2 cells after 48 hrs; assay type: functional; conditions: SK-MEL-2, 48 h
HCT-15 = test: Antitumor activity against human HCT15 cells after 48 hrs; assay type: functional; conditions: HCT-15, 48 h
MDA-MB-468 = test: Antitumor activity against human MDA-MB-468 cells after 48 hrs; assay type: functional; conditions: MDA-MB-468, 48 h
[1] = Antitumor activity against human HOP92 cells after 48 hrs; assay type: functional; conditions: HOP-92, 48 h
A498 = test: Antitumor activity against human A498 cells after 48 hrs; assay type: functional; conditions: A498, 48 h
OVCAR-5 = test: Antitumor activity against human OVCAR5 cells after 48 hrs; assay type: functional; conditions: OVCAR-5, 48 h
SW-620 = test: Antitumor activity against human SW620 cells after 48 hrs; assay type: functional
CCRF-CEM = test: Antitumor activity against human CCRF-CEM cells after 48 hrs; assay type: functional
[2] = Antitumor activity against human BT549 cells after 48 hrs; assay type: functional; conditions: BT-549, 48 h
[3] = Antitumor activity against human LOXIMVI cells after 48 hrs; assay type: functional; conditions: LOX IMVI
NCI-H460 = test: Antitumor activity against human NCI-H460 cells after 48 hrs; assay type: functional; conditions: NCI-H460, 48 h
[4] = Antitumor activity against human MOLT4 cells after 48 hrs; assay type: functional; conditions: MOLT-4, 48 h
T47D = test: Antitumor activity against human T47D cells after 48 hrs; assay type: functional
KM12 = test: Antitumor activity against human KM12 cells after 48 hrs; assay type: functional; conditions: KM12, 48 h
PC-3 = test: Antitumor activity against human PC3 cells after 48 hrs; assay type: functional; conditions: PC-3, 48 h
SNB-19 = test: Antitumor activity against human SNB19 cells after 48 hrs; assay type: functional; conditions: SNB-19, 48 h
SK-MEL-28 = test: Antitumor activity against human SK-MEL-28 cells after 48 hrs; assay type: functional; conditions: SK-MEL-28, 48 h
MDA-MB-435 = test: Antitumor activity against human MDA-MB-435 cells after 48 hrs; assay type: functional; conditions: MDA-MB-435, 48 h
NCI-H522 = test: Antitumor activity against human NCI-H522 cells after 48 hrs; assay type: functional; conditions: NCI-H522, 48 h
MCF7 = test: Antitumor activity against human MCF7 cells after 48 hrs; assay type: functional; conditions: MCF7, 48 h
786-0 = test: Antitumor activity against human 786-0 cells after 48 hrs; assay type: functional; conditions: 786-0, 48 h
[5] = Antitumor activity against human SF295 cells after 48 hrs; assay type: functional; conditions: SF-295, 48 h
Malme-3M = test: Antitumor activity against human MALME-3M cells after 48 hrs; assay type: functional
EKVX = test: Antitumor activity against human EKVX cells after 48 hrs; assay type: functional, cell-based
IGROV-1 = test: Antitumor activity against human IGROV1 cells after 48 hrs; assay type: functional; conditions: IGROV-1, 48 h
NCI-H226 = test: Antitumor activity against human NCI-H226 cells after 48 hrs; assay type: functional; conditions: NCI-H226, 48 h
MDA-MB-231 = test: Antitumor activity against human MDA-MB-231 cells after 48 hrs; assay type: functional; conditions: MDA-MB-231, 48 h
[6] = Antitumor activity against human Hs578T cells after 48 hrs; assay type: functional; conditions: Hs-578T
K562 = test: Antitumor activity against human K562 cells after 48 hrs; assay type: functional; conditions: K562, 48 h
SF-268 = test: Antitumor activity against human SF268 cells after 48 hrs; assay type: functional; conditions: SF-268, 48 h
HOP-62 = test: Antitumor activity against human HOP62 cells after 48 hrs; assay type: functional; conditions: HOP-62, 48 h
SN12C = test: Antitumor activity against human SN12C cells after 48 hrs; assay type: functional
HT-29 = test: Antitumor activity against human HT-29 cells after 48 hrs; assay type: functional; conditions: HT-29, 48 h
NCI-H23 = test: Antitumor activity against human NCI-H23 cells after 48 hrs; assay type: functional; conditions: NCI-H23, 48 h
HCT-116 = test: Antitumor activity against human HCT116 cells after 48 hrs; assay type: functional; conditions: HCT-116, 48 h
UO-31 = test: Antitumor activity against human UO31 cells after 48 hrs; assay type: functional; conditions: UO-31, 48 h
SR = test: Antitumor activity against human SR cells after 48 hrs; assay type: functional
[7] = Antitumor activity against human COLO205 cells after 48 hrs; assay type: functional; conditions: COLO 205, 48 h
HL-60(TB) = test: Antitumor activity against human HL-60(TB) cells after 48 hrs; assay type: functional; conditions: HL-60, 48 h
SK-OV-3 = test: Antitumor activity against human SKOV3 cells after 48 hrs; assay type: functional; conditions: SK-OV-3, 48 h
U-251 = test: Antitumor activity against human U251 cells after 48 hrs; assay type: functional; conditions: U-251, 48 h
SNB-75 = test: Antitumor activity against human SNB75 cells after 48 hrs; assay type: functional; conditions: SNB-75, 48 h
NCI-H322M = test: Antitumor activity against human NCI-H322M cells after 48 hrs; assay type: functional
OVCAR-3 = test: Antitumor activity against human OVCAR3 cells after 48 hrs; assay type: functional; conditions: OVCAR-3, 48 h
A549 = test: Antitumor activity against human A549 cells after 48 hrs; assay type: functional; conditions: A549, 48 h
ACHN = test: Antitumor activity against human ACHN cells after 48 hrs; assay type: functional
[8] = Antitumor activity against human NCI-ADR-RES cells after 48 hrs; assay type: functional
[9] = Antitumor activity against human RPMI8226 cells after 48 hrs; assay type: functional; conditions: RPMI-8226, 48 h
DU-145 = test: Antitumor activity against human DU145 cells after 48 hrs; assay type: functional; conditions: DU-145, 48 h
M14 = test: Antitumor activity against human M14 cells after 48 hrs; assay type: functional; conditions: M14, 48 h
[10] = Antitumor activity against human RXF393 cells after 48 hrs; assay type: functional; conditions: RXF 393, 48 h
[11] = Antitumor activity against human HCC2998 cells after 48 hrs; assay type: functional; conditions: HCC 2998, 48 h
SK-MEL-5 = test: Antitumor activity against human SK-MEL-5 cells after 48 hrs; assay type: functional; conditions: SK-MEL-5, 48 h
CAKI-1 = test: Antitumor activity against human Caki1 cells after 48 hrs; assay type: functional; conditions: CAKI-1, 48 h
UACC-62 = test: Antitumor activity against human UACC62 cells after 48 hrs; assay type: functional; conditions: UACC-62, 48 h
OVCAR-4 = test: Antitumor activity against human OVCAR4 cells after 48 hrs; assay type: functional; conditions: OVCAR-4, 48 h
[12] = Antitumor activity against human SF539 cells after 48 hrs; assay type: functional; conditions: SF-539, 48 h
OVCAR-8 = test: Antitumor activity against human OVCAR8 cells after 48 hrs; assay type: functional; conditions: OVCAR-8, 48 h
TK-10 = test: Antitumor activity against human TK10 cells after 48 hrs; assay type: functional; conditions: TK-10, 48 h

## COc1cc(/C(C#N)=C/c2cnc3ccccc3c2)cc(OC)c1OC
SK-MEL-2
  GI50: 1.05 µM
HCT-15
  GI50: 1.08 µM
MDA-MB-468
  GI50: 0.87 µM
[1]
  GI50: 0.403 µM
A498
  GI50: 0.678 µM
OVCAR-5
  GI50: 3.94 µM
SW-620
  GI50: inactive
CCRF-CEM
  GI50: 1.38 µM
[2]
  GI50: 1.43 µM
[3]
  GI50: 0.645 µM
NCI-H460
  GI50: 2.05 µM
[4]
  GI50: 3.2 µM
T47D
  GI50: 9.54 µM
KM12
  GI50: 0.436 µM
PC-3
  GI50: 1.08 µM
SNB-19
  GI50: 5.23 µM
SK-MEL-28
  GI50: 3.27 µM
MDA-MB-435
  GI50: 0.227 µM
NCI-H522
  GI50: 0.299 µM
MCF7
  GI50: 0.429 µM
786-0
  GI50: 6.29 µM
[5]
  GI50: 0.556 µM
Malme-3M
  GI50: 0.691 µM
EKVX
  GI50: inactive
IGROV-1
  GI50: 3.15 µM
NCI-H226
  GI50: > 100 µM
MDA-MB-231
  GI50: 2.83 µM
[6]
  GI50: 1.31 µM
K562
  GI50: 0.444 µM
SF-268
  GI50: 9.17 µM
HOP-62
  GI50: 10.3 µM
SN12C
  GI50: 1.94 µM
HT-29
  GI50: 0.421 µM
NCI-H23
  GI50: 2.93 µM
HCT-116
  GI50: 0.464 µM
UO-31
  GI50: 0.58 µM
SR
  GI50: 0.569 µM
[7]
  GI50: 0.374 µM
HL-60(TB)
  GI50: 0.329 µM
SK-OV-3
  GI50: 1.34 µM
U-251
  GI50: 1.7 µM
SNB-75
  GI50: 1.49 µM
NCI-H322M
  GI50: 27.4 µM
OVCAR-3
  GI50: 0.263 µM
A549
  GI50: 0.68 µM
ACHN
  GI50: 0.911 µM
[8]
  GI50: 0.343 µM
[9]
  GI50: 2.06 µM
DU-145
  GI50: 1.51 µM
M14
  GI50: 0.54 µM
[10]
  GI50: 0.579 µM
[11]
  GI50: 2.01 µM
SK-MEL-5
  GI50: 0.41 µM
CAKI-1
  GI50: 0.346 µM
UACC-62
  GI50: 0.478 µM
OVCAR-4
  GI50: 13.8 µM
[12]
  GI50: 0.361 µM
OVCAR-8
  GI50: 3.41 µM
TK-10
  GI50: 2.55 µM
